Molecules are shown by their SMILES. Like-named read-outs stand apart in the source and are kept apart here.

In experiment [1] the test system is PSA. Kind of experiment: Screening SSIA by homogeneous PSA immunoassay. It counts as biochemical. The protocol: This example presents one method used for testing of candidate compounds for functionality as SSIA in assays of the present disclosure. Testing was conducted in a model screening immunoassay of the protein PSA. Mouse anti-PSA tests were run using a 96-well microtiter plate format. […] The plate was incubated at 37° C. for 10 minutes. A 5 μL aliquot of the test compound (various concentrations) was added to each well. Chemiluminescence was triggered by the addition of 100 μL of a solution of trigger solution A. The chemiluminescent flash was integrated for 5 seconds after the addition of the trigger solution using a Luminoskan Asent® plate luminometer, (Thermo Fischer Scientific, Inc., Waltham, Mass.).
It is desirable that the improvement factor be at least 2 (S5/S0≧ about 20-30) and more desirable that improvement factor be at least 5 (S5/S0≧ about 50), yet more desirable that S5/S0 be ≧100 in the present screen.

The target in experiment [2] is T1, biotinylated HRP (Armoracia rusticana, UniProt P00433).
T1 construct: purchased Roche Diagnostics, Indianapolis, Ind., USA
T1 sequence (P00433 31-338 limits assumed): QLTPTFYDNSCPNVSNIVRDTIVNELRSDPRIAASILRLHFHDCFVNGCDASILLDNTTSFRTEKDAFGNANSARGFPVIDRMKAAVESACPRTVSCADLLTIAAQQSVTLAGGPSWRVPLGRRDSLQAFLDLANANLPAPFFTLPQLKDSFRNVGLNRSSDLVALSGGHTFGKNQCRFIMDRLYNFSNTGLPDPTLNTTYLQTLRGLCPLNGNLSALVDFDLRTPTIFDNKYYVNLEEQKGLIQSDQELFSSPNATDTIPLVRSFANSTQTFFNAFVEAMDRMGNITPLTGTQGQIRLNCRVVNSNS
Kind of experiment: Model system for selection of SSIA (M280 btn-BSA-AK1-streptavidin particles + Btn-HRP:HRP). Type of experiment: biochemical. As to conditions: for S/S0: Btn-HRP 0 ng/mL vs 0; for S/S0 / S1/S0 / S2/S0 / S3/S0 / S4/S0 / effect in the model system / utility as SSIA: SSIA 100 μM; for B-HRP0 light intensity: Btn-HRP 0 ng/mL; for B-HRP0 light intensity / B-HRP1 light intensity / B-HRP10 light intensity / B-HRP100 light intensity / B-HRP250 light intensity: total HRP 500 ng/mL, SSIA final 100 μM; for S1/S0: Btn-HRP 1 ng/mL vs 0; for B-HRP1 light intensity: Btn-HRP 1 ng/mL; for S2/S0: Btn-HRP 10 ng/mL vs 0; for B-HRP10 light intensity: Btn-HRP 10 ng/mL; for S3/S0: Btn-HRP 100 ng/mL vs 0; for B-HRP100 light intensity: Btn-HRP 100 ng/mL; for S4/S0: Btn-HRP 250 ng/mL vs 0; for B-HRP250 light intensity: Btn-HRP 250 ng/mL; for effect in the model system / utility as SSIA: conclusion in words. How it is done:
The model system uses a microparticle conjugated to BSA (bovine serum albumin) labeled with a […] and acridan ketenedithioacetal chemiluminescent label (AK1) as the chemiluminescent-labeled sbp, and biotinylated HRP as the activator-labeled specific binding pair. In the model system, varying amounts of Btn-HRP is added to the chemiluminescent-labeled specific binding pair at 0, 1, 10, 100 and 250 ng/mL. Additional unlabeled HRP is added to reach a total HRP of concentration of 500 ng/mL in each reaction mixture. The unlabeled HRP in combination with the activator-labeled sbp was provided to the chemiluminescent-labeled sbp microparticles to emulate sample. A compound for assessment as an SSIA was also added. This reaction mixture of the model system is then triggered by addition of trigger solution in a manner of assays of the present disclosure.
To prepare the chemiluminescent-labeled sbp on microparticles, Bovine Serum Albumin (BSA) was biotinylated with 4× molar excess of biotin-LC-sulfoNHS (Pierce Biotechnology Inc., Rockford, Ill., USA). Unbound reactants were removed via desalting or dialysis. The biotin-BSA was then reacted with a 5× molar excess of acridan ketenedithioacetal AK1 in 20 mM sodium phosphate pH 7.2: DMSO 75:25, v/v) followed by desalting in the same buffer. The dual labeled (biotin and AK1) BSA was then coupled with tosyl activated M-280 microparticles (Invitrogen Corporation, Carlsbad, Calif., USA) in a 0.1 M borate buffer pH 9.5 at a concentration of ca. 20 μg labeled BSA per mg of microparticles for 16-24 h at 40° C. After coupling the microparticles were stripped for 1 h at 40° C. with 0.2 M TRIS base, 2% SDS, pH ˜11. The stripping process was repeated one additional time. Microparticles were then suspended in a 0.1% BSA/TRIS buffered saline (BSA/TBS) buffer and streptavidin (SA) was added at approximately 15 μg SA per mg microparticles. Streptavidin was mixed with the microparticles for 45-50 min at room temperature. The microparticles were then washed three times and suspended in the same BSA/TBS.
HRP, (Roche Diagnostics, Indianapolis, Ind., USA) was biotinylated with 4× molar excess of biotin-LC-sulfoNHS (Pierce Biotechnology Inc., Rockford, Ill., USA). Unbound reactants were removed via desalting or dialysis.
Each SSIA compound for assessment was dissolved in Buffer II at a concentration at least 10× of final concentration of the reaction mixture (after the addition of the trigger solution)
Paramagnetic particles (PMP): (M280)-(btn-BSA-AK)-(Streptavidin);
Sample Emulator: B-HRP:HRP; 500 ng/mL total with titration of B-HRP:HRP at Total HRP concentration of 500 ng/mL, with Btn-HRP variations: 0, 1, 10, 100 and 250 ng/mL.
SSIA: According to tables below in BUFFER II targeted to give a final concentration of 100 μM.
Trigger solution A is defined above.
5 μl of 1 mg/ml of dual-labeled (biotin and AK1) BSA M280 particles were mixed with 45 μl of working concentration SSIA in Buffer II. The assay volume brought to […] by adding 15 μl of Buffer II. 15 μl of sample containing Btn-HRP:HRP at different ratios (The amount of biotinylated-HRP varied from 0, 1, 10, 100 and 250 ng/mL) was added. The reaction mixture was incubated for 30 min at 37° C., then 100 μL of trigger solution was added and the light intensity recorded. Total volume of reaction mixture, including trigger solution was […] with a final concentration of 100 μM of SSIA.

Setting [3] is: PSA 129 ng/mL (S5) vs zero, test compound final conc. 0.244 mM.
Where [4] appears, read: PSA 129 ng/mL (S5) vs zero, test compound final conc. 0.122 mM.

With `O=S(=O)([O-])CCCN1c2ccccc2Sc2ccccc21.[Na+]`, the S5/S0 in experiment [1] (setting [3]) turned out to be 50.

Take `Cc1cc(CO)c(O)c(CO)c1`: in experiment [1] (setting [4]), the S5/S0 is 23.

In experiment [1] (setting [4]), `Oc1cccc(O)c1O` had an S5/S0 of 69.

With `Oc1cccnc1O`, the S5/S0 in experiment [1] (setting [4]) is listed as 41.

On to `O=C(O)c1cc(O)c(O)c(O)c1`, for which the S5/S0 in experiment [1] (setting [4]) amounted to 135.

Regarding `Cn1ccnc1S`, the S5/S0 in experiment [1] (PSA 129 ng/mL (S5) vs zero, test compound final conc. 36.7 mM) is 102.

With `Oc1ccc(O)c(Cl)c1` [drawing 75], the S5/S0 in experiment [1] (PSA 129 ng/mL (S5) vs zero, test compound final conc. 0.111 mM) is on record as 229.

Turning to `OCCO` [Ethylene glycol], in experiment [1], the S5/S0 stood at 14.

The compound `O[C@@H](CS)[C@@H](O)CS` [DTT] showed an S5/S0 in experiment [1] (PSA 129 ng/mL (S5) vs zero, test compound final conc. 72 uM) of 20.

Consider `Nc1ncccc1O`, for which the S5/S0 in experiment [1] (setting [4]) came out at 32.

The compound `O=c1cc(O)c2ccccc2o1` showed an S5/S0 in experiment [1] (setting [4]) of 17.

`O=S(=O)([O-])CCCOCCCN1c2ccccc2Cc2ccccc21.[Na+]` showed an S5/S0 in experiment [1] (setting [3]) of 6.

For `Nc1ccc(C(=O)O)cc1O` [drawing 79], the S5/S0 in experiment [1] (setting [4]) was found to be 153.

In experiment [1] (setting [4]), `O=C1O[C@H]([C@@H](O)CO)C(O)=C1O` [drawing 72] showed an S5/S0 of 423.

With `CC1(C)OC[C@@H]([C@H]2OC(=O)C(O)=C2O)O1` [5,6iso-propyliene ascorbic acid, 5,6-Isopropylidene-L-Ascorbic acid], in experiment [2], the S/S0 is 1, the B-HRP0 light intensity was found to be 264, the S1/S0 is given as 3.6 and the B-HRP1 light intensity was found to be 961. For the same compound, in experiment [2], the S2/S0 stood at 112.3, the B-HRP10 light intensity is given as 29,645, the S3/S0 was determined as 18626.9 and the B-HRP100 light intensity is recorded as 4,917,499. Further, in experiment [2], the S4/S0 is on record as 33275, the B-HRP250 light intensity is listed as 8,784,595 and the “effect in the model system / utility as SSIA” value is listed as “demonstrating utility as SSIA”.

Consider `Cc1c(O)cc2c(c1C)O[C@](C)(CCC[C@H](C)CCC[C@H](C)CCCC(C)C)CC2` [(+)-gamma-Tocopherol, (+)-y-Tocopherol], for which, in experiment [2], the S/S0 was 1, the B-HRP0 light intensity is 6,051, the S1/S0 came to 1.8 and the B-HRP1 light intensity was 10,924. In addition, in experiment [2], the S2/S0 amounted to 278.7, the B-HRP10 light intensity is recorded as 1,686,079, the S3/S0 was found to be 1437.5 and the B-HRP100 light intensity was 8,698,069. Further, in experiment [2], the S4/S0 was found to be 1699.4 and the B-HRP250 light intensity is 10,282,504.

Regarding `Oc1ccc(O)c(Cl)c1` [2-chloro-1,4-dihydroxybenzene], in experiment [2], the S/S0 is given as 1, the B-HRP0 light intensity is given as 3,571, the S1/S0 is 1.1 and the B-HRP1 light intensity is on record as 4,007. Further, in experiment [2], the S2/S0 was 52.9, the B-HRP10 light intensity is on record as 188,920, the S3/S0 is listed as 170.8 and the B-HRP100 light intensity was 610,053. Moreover, in experiment [2], the S4/S0 is recorded as 245.3, the B-HRP250 light intensity was 875,831 and the “effect in the model system / utility as SSIA” value was “demonstrating utility as SSIA”.

For the compound `CCCCCCCCCCCCCCCC(=O)OC[C@H](O)[C@H]1OC(=O)C(O)=C1O` [Ascorbic Acid 6-palmitate, L-Ascorbic acid 6-Palmitate], in experiment [2], the S/S0 is reported as 1, the B-HRP0 light intensity is reported as 81, the S1/S0 is given as 4 and the B-HRP1 light intensity turned out to be 327. Further, in experiment [2], the S2/S0 amounted to 502.4, the B-HRP10 light intensity is given as 40,863, the S3/S0 amounted to 100662.3 and the B-HRP100 light intensity is 8,187,204. For the same compound, in experiment [2], the S4/S0 is given as 125193.6, the B-HRP250 light intensity is reported as 10,182,411 and the “effect in the model system / utility as SSIA” value is reported as “demonstrating utility as SSIA”.

Take `Oc1ccc(C=Cc2cc(O)cc(O)c2)cc1` [Resveratrol]: in experiment [2], the B-HRP0 light intensity is 64,051, the B-HRP1 light intensity is recorded as 81,452, the B-HRP10 light intensity is 1,073,968 and the B-HRP100 light intensity is 5,944,792.

As for `O=c1[nH]c(=O)c2[nH]c(=O)[nH]c2[nH]1` [Uric Acid], in experiment [2], the S/S0 came to 1, the B-HRP0 light intensity was 5,532, the S1/S0 is 1.8 and the B-HRP1 light intensity was 9,760. For the same compound, in experiment [2], the S2/S0 is listed as 185.3, the B-HRP10 light intensity is on record as 1,025,209, the S3/S0 worked out at 1574.9 and the B-HRP100 light intensity is given as 8,712,328. Further, in experiment [2], the S4/S0 came out at 1935.8 and the B-HRP250 light intensity was 10,708,733.

Turning to `COc1ccc2[nH]cc(CCNC(C)=O)c2c1` [Melatonin], in experiment [2], the S/S0 was 1, the B-HRP0 light intensity is 54,528, the S1/S0 came to 1.3 and the B-HRP1 light intensity is 70,741. In addition, in experiment [2], the S2/S0 was determined as 43.7, the B-HRP10 light intensity is given as 2,381,361, the S3/S0 is 173.7 and the B-HRP100 light intensity was 9,471,431. Moreover, in experiment [2], the S4/S0 was determined as 190.2, the B-HRP250 light intensity is reported as 10,370,061 and the “effect in the model system / utility as SSIA” value is reported as “no effect”.

For `Nc1ccc(C(=O)O)cc1O` [4-Amino-3-hydroxybenzoic acid, 4-amino-3-hydroxybenzoic acid], in experiment [2], the S/S0 turned out to be 1, the B-HRP0 light intensity is 972, the S1/S0 stood at 2.9 and the B-HRP1 light intensity was 2,808. Besides, in experiment [2], the S2/S0 stood at 454.2, the B-HRP10 light intensity is on record as 441,455, the S3/S0 is on record as 6076.7 and the B-HRP100 light intensity is listed as 5,906,521. For the same compound, in experiment [2], the S4/S0 was 6587.9, the B-HRP250 light intensity is 6,403,425 and the “effect in the model system / utility as SSIA” value is on record as “demonstrating utility as SSIA”.

These data come from patent US20100273189A1, “NON SEPARATION ASSAYS WITH SELECTIVE SIGNAL INHIBITORS” (BECKMAN COULTER, INC., priority 2009, published 2010).
